Test results as given in patent US9149038B2, “4-amino-6-(heterocyclic)picolinates and 6-amino-2-(heterocyclic)pyrimidine-4-carboxylates and their use as herbicides” (Dow AgroSciences LLC, priority 2013, dated 2015).
Read-outs that look alike come from different tables or passages of the source.

Assays:
[1] = system: Key Grass and Sedge Weeds as well as Grass Crops; test: Post-Emergent Test II: postemergent herbicidal activity, visual rating after 14 d (Table 8); type: in vivo; settings: post-emergence, 336 h; for pest or weed control at 35 g/ha: 35 g ai/ha; for pest or weed control at 70 g/ha: 70 g ai/ha; for pest or weed control at 140 g/ha: 140 g ai/ha
In short: (§1)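 Greenhouse plants at first or second true leaf stage sprayed with compound in acetone/DMSO-based spray solution with crop oil concentrate and Triton X-155 at 187 L/ha, tested at highest rate and ½× to 1/16× dilutions; solvent blank controls. Injury rated visually 0–100% versus untreated plants after 14 d.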

[2] = system: Key Broadleaf Weed and Crop Species; test: Post-Emergent Test II: postemergent herbicidal activity, visual rating after 14 d (Table 7); type: in vivo; settings: post-emergence, 336 h; for pest or weed control at 35 g/ha: 35 g ai/ha; for pest or weed control at 70 g/ha: 70 g ai/ha; for pest or weed control at 140 g/ha: 140 g ai/ha
In short: as §1

[3] = barnyardgrass (Echinochloa crus-galli), read-out: Visual Growth Reduction (%) 14 Days After Application ECHCG
[4] = giant foxtail (Setaria faberi), read-out: Visual Growth Reduction (%) 14 Days After Application SETFA
[5] = maize, corn (Zea mays), read-out: Visual Growth Reduction (%) 14 Days After Application ZEAMX
[6] = rice (Oryza sativa), read-out: Visual Growth Reduction (%) 14 Days After Application ORYSA
[7] = wheat, spring (Triticum aestivum), read-out: Visual Growth Reduction (%) 14 Days After Application TRZAS
[8] = yellow nutsedge (Cyperus esculentus), read-out: Visual Growth Reduction (%) 14 Days After Application CYPES
[9] = lambsquarters (Chenopodium album), read-out: Visual Growth Reduction (%) 14 Days After Application CHEAL
[10] = oilseed rape, canola (Brassica napus), read-out: Visual Growth Reduction (%) 14 Days After Application BRSNN
[11] = redroot pigweed (Amaranthus retroflexus), read-out: Visual Growth Reduction (%) 14 Days After Application AMARE
[12] = sunflower (Helianthus annuus), read-out: Visual Growth Reduction (%) 14 Days After Application HELAN
[13] = velvetleaf (Abutilon theophrasti), read-out: Visual Growth Reduction (%) 14 Days After Application ABUTH
[14] = wild poinsettia (Euphorbia heterophylla), read-out: Visual Growth Reduction (%) 14 Days After Application EPHHL

Compound | pest or weed control at 35 g/ha [1, 3] | pest or weed control at 70 g/ha [1, 3] | pest or weed control at 140 g/ha [1, 3] | pest or weed control at 35 g/ha [1, 4] | pest or weed control at 70 g/ha [1, 4] | pest or weed control at 140 g/ha [1, 4] | pest or weed control at 35 g/ha [1, 5] | pest or weed control at 70 g/ha [1, 5] | pest or weed control at 140 g/ha [1, 5] | pest or weed control at 35 g/ha [1, 6] | pest or weed control at 70 g/ha [1, 6] | pest or weed control at 140 g/ha [1, 6] | pest or weed control at 35 g/ha [1, 7] | pest or weed control at 70 g/ha [1, 7] | pest or weed control at 140 g/ha [1, 7] | pest or weed control at 35 g/ha [1, 8] | pest or weed control at 70 g/ha [1, 8] | pest or weed control at 140 g/ha [1, 8] | pest or weed control at 35 g/ha [2, 9] | pest or weed control at 70 g/ha [2, 9] | other results
COC(=O)c1nc(-c2ccc(F)c3c2OC(F)(F)O3)c(F)c(N)c1Cl [Compound 76] | 0 to 29% | 0 to 29% | 0 to 29% | 0 to 29% | 0 to 29% | 0 to 29% | 0 to 29% | 0 to 29% | 0 to 29% | 0 to 29% | 0 to 29% | 0 to 29% | 30 to 44% | 45 to 59% | 60 to 74% | 0 to 29% | 30 to 44% | 30 to 44% | 85 to 94% | 85 to 94% | pest or weed control at 140 g/ha [2, 9]: 95 to 100%; pest or weed control at 35 g/ha [2, 10]: 60 to 74%; pest or weed control at 70 g/ha [2, 10]: 75 to 84%; pest or weed control at 140 g/ha [2, 10]: 85 to 94%; pest or weed control at 35 g/ha [2, 11]: 95 to 100%; pest or weed control at 70 g/ha [2, 11]: 95 to 100%; pest or weed control at 140 g/ha [2, 11]: 95 to 100%; pest or weed control at 35 g/ha [2, 12]: 85 to 94%; pest or weed control at 70 g/ha [2, 12]: 85 to 94%; pest or weed control at 140 g/ha [2, 12]: 85 to 94%; pest or weed control at 35 g/ha [2, 13]: 60 to 74%; pest or weed control at 70 g/ha [2, 13]: 75 to 84%; pest or weed control at 140 g/ha [2, 13]: 85 to 94%; pest or weed control at 35 g/ha [2, 14]: 0 to 29%; pest or weed control at 70 g/ha [2, 14]: 0 to 29%; pest or weed control at 140 g/ha [2, 14]: 0 to 29%
Cc1c(-c2ccc3c(c2)OC(F)(F)O3)nc(C(=O)O)c(Cl)c1N [Compound 52] | 45 to 59% | 60 to 74% | 75 to 84% | 0 to 29% | 0 to 29% | 45 to 59% | 60 to 74% | 60 to 74% | 60 to 74% | 0 to 29% | 0 to 29% | 0 to 29% | 0 to 29% | 30 to 44% | 30 to 44% | 0 to 29% | 0 to 29% | 0 to 29% | 0 to 29% | 0 to 29% | pest or weed control at 140 g/ha [2, 9]: 0 to 29%; pest or weed control at 35 g/ha [2, 10]: 0 to 29%; pest or weed control at 70 g/ha [2, 10]: 0 to 29%; pest or weed control at 140 g/ha [2, 10]: 0 to 29%; pest or weed control at 35 g/ha [2, 11]: 0 to 29%; pest or weed control at 70 g/ha [2, 11]: 0 to 29%; pest or weed control at 140 g/ha [2, 11]: 0 to 29%; pest or weed control at 35 g/ha [2, 12]: 85 to 94%; pest or weed control at 70 g/ha [2, 12]: 95 to 100%; pest or weed control at 140 g/ha [2, 12]: 95 to 100%; pest or weed control at 35 g/ha [2, 13]: 0 to 29%; pest or weed control at 70 g/ha [2, 13]: 0 to 29%; pest or weed control at 140 g/ha [2, 13]: 0 to 29%; pest or weed control at 35 g/ha [2, 14]: 0 to 29%; pest or weed control at 70 g/ha [2, 14]: 0 to 29%; pest or weed control at 140 g/ha [2, 14]: 0 to 29%
COC(=O)c1nc(-c2ccc3c(c2F)OC(F)(F)O3)cc(N)c1Cl [Compound 37, Methyl 4-amino-3-chloro-6-(2,2,4-trifluorobenzo-[d][1,3]dioxol-5-yl)picolinate] | 95 to 100% | 95 to 100% | 95 to 100% | 60 to 74% | 95 to 100% | 95 to 100% | 60 to 74% | 75 to 84% | 85 to 94% | 0 to 29% | 0 to 29% | 0 to 29% | 0 to 29% | 0 to 29% | 0 to 29% | 95 to 100% | 95 to 100% | 95 to 100% | 95 to 100% | 95 to 100% | pest or weed control at 140 g/ha [2, 9]: 95 to 100%; pest or weed control at 35 g/ha [2, 10]: 85 to 94%; pest or weed control at 70 g/ha [2, 10]: 95 to 100%; pest or weed control at 140 g/ha [2, 10]: 95 to 100%; pest or weed control at 35 g/ha [2, 11]: 85 to 94%; pest or weed control at 70 g/ha [2, 11]: 95 to 100%; pest or weed control at 140 g/ha [2, 11]: 95 to 100%; pest or weed control at 35 g/ha [2, 12]: 0 to 29%; pest or weed control at 70 g/ha [2, 12]: 30 to 44%; pest or weed control at 140 g/ha [2, 12]: 75 to 84%; pest or weed control at 35 g/ha [2, 13]: 95 to 100%; pest or weed control at 70 g/ha [2, 13]: 95 to 100%; pest or weed control at 140 g/ha [2, 13]: 95 to 100%; pest or weed control at 35 g/ha [2, 14]: 95 to 100%; pest or weed control at 70 g/ha [2, 14]: 95 to 100%; pest or weed control at 140 g/ha [2, 14]: 95 to 100%
COC(=O)c1nc(-c2cc3c(cc2OC)OC(F)(F)O3)cc(N)c1Cl [Compound 38] | 0 to 29% | 0 to 29% | 0 to 29% | 0 to 29% | 0 to 29% | 0 to 29% | 0 to 29% | 0 to 29% | 0 to 29% | 0 to 29% | 0 to 29% | 0 to 29% | 0 to 29% | 0 to 29% | 0 to 29% | 0 to 29% | 0 to 29% | 0 to 29% | 0 to 29% | 0 to 29% | pest or weed control at 140 g/ha [2, 9]: 0 to 29%; pest or weed control at 35 g/ha [2, 10]: 0 to 29%; pest or weed control at 70 g/ha [2, 10]: 0 to 29%; pest or weed control at 140 g/ha [2, 10]: 0 to 29%; pest or weed control at 35 g/ha [2, 11]: 0 to 29%; pest or weed control at 70 g/ha [2, 11]: 60 to 74%; pest or weed control at 140 g/ha [2, 11]: 60 to 74%; pest or weed control at 35 g/ha [2, 12]: 0 to 29%; pest or weed control at 70 g/ha [2, 12]: 0 to 29%; pest or weed control at 140 g/ha [2, 12]: 60 to 74%; pest or weed control at 35 g/ha [2, 13]: 0 to 29%; pest or weed control at 70 g/ha [2, 13]: 0 to 29%; pest or weed control at 140 g/ha [2, 13]: 0 to 29%; pest or weed control at 35 g/ha [2, 14]: 0 to 29%; pest or weed control at 70 g/ha [2, 14]: 0 to 29%; pest or weed control at 140 g/ha [2, 14]: 0 to 29%
